Test results taken from paper PMC12040169 (PLOS Biology, 2025).

Assay: in vitro
Details: human, hela cells, % viability

| Compound | viability at 28.5 h, 10 µM [%] |
| --- | --- |
| O=c1c(-c2ccccc2)c(C(F)(F)F)oc2c(CN3CCN(Cc4ccccc4)CC3)c(O)ccc12 [CBK265808] | 95 |
| Cc1ccc(N(C(=O)COc2ccc(C(C)(C)C)cc2)C2C=CS(=O)(=O)C2)cc1 (centres unmarked) [CBK265811] | 105 |
| O=C(NC(=S)Nc1ccc(-c2nc3ncccc3o2)cc1)c1ccc2c(c1)OCCO2 [CBK265812] | 96.4 |
| Cc1ccc(CN(CC(=O)N2CCC(C(N)=O)CC2)S(=O)(=O)c2ccc(Br)cc2)cc1 [CBK265813] | 102 |
| CCN1CCN(c2ncnc3c2cnn3-c2cccc(C)c2)CC1 [CBK265814] | 93.8 |
| COc1ccc(Cc2nnc(SCC(=O)Nc3ccc(Br)c(C)c3)n2C)cc1 [CBK265816] | 83.9 |
| NS(=O)(=O)c1ccc(NC(=S)NCCN2CCOCC2)cc1 [CBK265818] | 107 |
| CCC(=O)c1cccc2c1NC=C1C(=O)CC(C)(C)CC1=N2 [CBK265821] | 108 |
| CC(=O)Nc1ccc(-c2nnc(SCc3c(Cl)cccc3[N+](=O)[O-])n2C)cc1 [CBK265823] | 89.1 |
| CCOc1cccc(CNn2cnnc2)c1OCc1ccccc1 [CBK265824] | 81.2 |
| CCSc1nc2ccccc2n1C(=O)c1ccc(S(=O)(=O)N2CCCCCC2)cc1 [CBK265825] | 91.6 |
| CCn1ncc(Br)c1C(=O)Nc1ccc(Cl)cn1 [CBK265826] | 94.8 |
| O=C(CN1CCN(c2ccccc2)CC1)Nc1ccc(Cl)cc1C(=O)c1ccccc1 [CBK265827] | 107 |
| C/C(O)=C1/C(=O)N(c2nc3ccccc3s2)N=C1CC(=O)O [CBK265828] | 90.5 |
| Cc1ccccc1OCc1nnc(SCC(=O)c2ccc3c(c2)Cc2ccccc2-3)n1C [CBK265829] | 93.9 |
| COC(=O)C1C(=O)NC(SCC(=O)Nc2cccc(Cl)c2C)=C(C#N)C1c1ccccc1F (centres unmarked) [CBK265830] | 94.9 |
| Cc1ccc(C(C)C)c(OCc2ccc(C(=O)Nc3ccc(S(N)(=O)=O)cc3C)o2)c1 [CBK265833] | 96.3 |
| CCOC(=O)c1cnc2ccc(F)cc2c1NCc1ccco1 [CBK265834] | 97 |
| CCn1nccc1C(=O)NC1=C(C#N)CCC1 [CBK265836] | 97.6 |
| CCCC(=O)Nc1ccccc1NC(=O)c1ccc2c(c1)OCO2 [CBK265841] | 103 |
| COc1ccccc1NC(=O)c1ccc(OCC(=O)O)cc1 [CBK265849] | 100 |
| NCCc1c[nH]c2ccc(OCC(=O)O)cc12 [CBK265853C] | 86.2 |

| Compound | viability at 28.5 h, 10 µM [%] |
| --- | --- |
| Cn1c(Cc2cccc3ccccc23)nnc1SCC(=O)Nc1ccccc1F [CBK265856] | 85 |
| Cc1ccc2nc(-c3ccc(NC(=O)CSc4nc(-c5ccccc5)cc(=O)[nH]4)cc3)sc2c1 [CBK265861] | 78.5 |
| O=C(CN1CCN(Cc2ccc3c(c2)OCO3)CC1)Nc1ccc(Oc2ccccc2)cc1 [CBK265864] | 94 |
| CCOc1ccc(-c2nc(C#N)c(NCCN3CCOCC3)o2)cc1 [CBK265867] | 112 |
| N#Cc1ccccc1CSc1nc2ccc(NC(=O)c3ccc([N+](=O)[O-])cc3)cc2s1 [CBK265868] | 90.7 |
| Cc1ccc(-c2ccc(CCC(=O)O)n2N=C(N)S)cc1 [CBK265870] | 91 |
| NC(=O)c1c(NC(=O)c2ccc(COc3ccc4ccccc4c3)o2)sc2c1CCCC2 [CBK265871] | 88.5 |
| COc1ccc(OC)c(NC(=O)CSc2nnc(-c3ccc(N)cc3)n2C)c1 [CBK265872] | 106 |
| Cc1cc(NC(=O)CCCN2C(=O)c3cccc4cccc(c34)C2=O)n(-c2ccccc2)n1 [CBK265874] | 109 |
| Cc1ccc(S(=O)(=O)NC2c3cccc4cccc(c34)C2Sc2n[nH]c(N)n2)cc1 (centres unmarked) [CBK265875] | 77.6 |
| O=c1c2ccccc2nc(/C=C/c2cccnc2)n1Cc1ccccc1 [CBK265876] | 106 |
| CN(C)CCNC(=O)c1ccc(COc2ccc(Cl)cc2Cl)cc1 [CBK265878] | 90.9 |
| N#Cc1nc(-c2ccccc2F)oc1NCCCN1CCOCC1 [CBK265881] | 107 |
| CN(C)S(=O)(=O)c1cc(C(=O)NCCc2c[nH]c3ccccc23)c(Cl)cc1Cl [CBK265883] | 87.5 |
| Cc1ccc(S(=O)(=O)NC2c3cccc4cccc(c34)C2Sc2nnnn2-c2ccccc2)cc1 (centres unmarked) [CBK265884] | 93.1 |
| O=C(c1cccc(S(=O)(=O)N2CCOCC2)c1)N(Cc1ccc(F)cc1)Cc1ccco1 [CBK265885] | 92.8 |
| OCCN1CCN(C(S)=NC2CCCC2)CC1 [CBK265886] | 91.6 |
| Cc1ccc([N+](=O)[O-])cc1NC(=O)CSc1nnc(Cc2ccccc2)o1 [CBK265889] | 116 |
| CC1=CCC(C(=O)O)C(C(=O)Nc2cccnc2)C1 (centres unmarked) [CBK265895] | 92.9 |
| NC(=O)C1(N2CCCCC2)CCN(C(=S)Nc2ccc(S(N)(=O)=O)cc2)CC1 [CBK265900] | 90.5 |
| Cc1cccc(-n2c(SCC(=O)Nc3ccc(Br)cc3F)nnc2-c2ccccc2)c1 [CBK265903] | 98.9 |
| CN(C)S(=O)(=O)N(CC(=O)Nc1cccc([N+](=O)[O-])c1)c1ccccc1 [CBK265904] | 90.2 |

| Compound | viability at 28.5 h, 10 µM [%] |
| --- | --- |
| Cn1c(SCC(=O)Nc2ccc(Br)cc2C(F)(F)F)nnc1-c1ccncc1 [CBK265905] | 84.4 |
| Cc1ccc(C)c(Oc2coc3cc(OCC(=O)Nc4ccccc4C(C)C)ccc3c2=O)c1 [CBK265906] | 113 |
| Cc1sc2ncnc(NCCOCCO)c2c1C [CBK265907] | 104 |
| CC1CCc2c(sc(NC(=O)c3ccccc3)c2CN2CCCC2)C1 (centres unmarked) [CBK265908] | 98.7 |
| Cc1ccc(-n2c(SCC(=O)NCc3ccccc3)nnc2-c2ccc(Cl)cc2)cc1C [CBK265909] | 97.9 |
| CC(C)c1ccc(OCC(=O)NCc2ccccn2)c(Br)c1 [CBK265910] | 99.2 |
| COc1ccc([N+](=O)[O-])cc1Nc1nc(-c2ccccc2)nc2ccccc12 [CBK265913] | 95.4 |
| O=S(=O)(NCC1CCCO1)c1ccc2oc3ccc(S(=O)(=O)NCC4CCCO4)cc3c2c1 (centres unmarked) [CBK265914] | 96.2 |
| COc1ccc(C(=O)Nc2ccc3c(c2)C(=O)N(CCC(=O)O)C3=O)cc1 [CBK265921] | 93.1 |
| Cc1ccc(-c2noc(CN3CCN(c4ccccc4)CC3)n2)cc1 [CBK265924] | 101 |
| Cc1cc2nnc(SCC(=O)Nc3ccc4c(c3)OCO4)n2c2ccccc12 [CBK265926] | 82.8 |
| CCn1c(SCC(=O)Nc2ccc(C(=O)O)cc2)nnc1-c1ccccc1C [CBK265927] | 107 |
| Cc1ccc(-c2nc3ccccc3[nH]2)cc1NC(=O)COc1cccc([N+](=O)[O-])c1 [CBK265932] | 94.3 |
| CCc1cccc(CC)c1NC(=O)CN(c1cccc(Cl)c1Cl)S(C)(=O)=O [CBK265934] | 103 |
| OCCN(CCO)c1nc(-c2ccccc2)nc2sc(-c3ccccc3)cc12 [CBK265935] | 105 |
| COCCn1c(SCc2ccc([N+](=O)[O-])cc2)nnc1-c1ccccc1 [CBK265937] | 89.6 |
| Cc1sc2ncnc(SCC(=O)Nc3sc4c(c3C#N)CCCC4)c2c1-c1ccccc1 [CBK265938] | 93.3 |
| NCc1oc(-c2ccccc2)cc1C(=O)O [CBK265941C] | 89.8 |
| COC(=O)c1c(NC(=O)CSc2nnc3ccccn23)sc(C)c1C [CBK265943] | 95.7 |
| COc1ccc(-c2ccc(CCC(=O)O)n2Cc2ccco2)cc1 [CBK265945] | 92.6 |
| NC1=C(c2nc3ccccc3s2)C(=O)CN1CCN1CCOCC1 [CBK265946] | 93.1 |
| N#Cc1c(C(F)(F)F)cc(-c2cccs2)nc1SCC(O)CN1CCSCC1 (centres unmarked) [CBK265947] | 88.2 |

| Compound | viability at 28.5 h, 10 µM [%] |
| --- | --- |
| O=C(COc1ccc(S(=O)(=O)NC2CCCCC2)cc1)N1CCN(c2cccc(Cl)c2)CC1 [CBK265948] | 90.6 |
| COc1ccc(-c2cc(-c3ccccc3)c(C#N)c(S(=O)(=O)Cc3ccccc3)n2)cc1 [CBK265949] | 89.6 |
| NC(=S)Nn1c(CCC(=O)O)ccc1-c1cccs1 [CBK265952] | 92.3 |
| O=C(O)CCc1ccc(-c2ccc(F)cc2)n1Cc1ccco1 [CBK265953] | 83.9 |
| Cc1cc(I)ccc1NC(=O)CN(c1ccccc1)S(=O)(=O)c1ccccc1[N+](=O)[O-] [CBK265954] | 78.6 |
| CCn1c(COc2ccccc2Cl)nnc1SCC(=O)N1c2ccccc2Sc2ccccc21 [CBK265957] | 114 |
| COC(=O)c1ccccc1NC(=O)CCSc1ccc(C)cc1 [CBK265958] | 91.9 |
| O=C(COc1ccc(S(=O)(=O)NC2CCCCC2)cc1)Nc1ccc2c(c1)OCO2 [CBK265960] | 84.5 |
| Cc1ccc(Nc2nc(N)nc(CSCCO)n2)cc1 [CBK265962] | 97.1 |
| O=c1c2ccccc2nc2c3ccccc3c(NCc3ccccn3)nn12 [CBK265964] | 89.3 |
| CCOC(=O)c1cnc2c(C)c(Cl)ccc2c1NCCN(C)C [CBK265965] | 102 |
| COC(=O)c1ccccc1NC(=O)CSc1nnc(-c2ccccc2Cl)[nH]1 [CBK265966] | 95.4 |
| N#Cc1cc2c(nc1SCC(O)COCc1ccccc1)CCCC2 (centres unmarked) [CBK265967] | 104 |
| Clc1ccc(-c2csc3ncnc(SCc4ccco4)c23)cc1 [CBK265972] | 90.5 |
| CCOC(=O)c1cnc2c(C)cc(Cl)cc2c1N1CCN(Cc2ccccc2)CC1 [CBK265975] | 108 |
| CC(C)C12CN3CC(C(C)C)(CN(C1)C3c1ccc3c(c1)OCO3)C2=O (centres unmarked) [CBK265981] | 100 |
| O=C(CN1C(=O)c2ccccc2S1(=O)=O)N(Cc1ccccc1)Cc1ccccc1 [CBK265982] | 107 |
| O=C(O)CCc1ccc(-c2ccc(Cl)cc2)n1Cc1ccco1 [CBK265984] | 92.4 |
| COc1ccc(-n2c(Cc3ccccc3)nnc2SCC(=O)c2ccccc2)cc1 [CBK265989] | 105 |
| Cc1cc(C)c(NC(=O)CSc2nnc(Cc3ccccc3)n2C)c(C)c1 [CBK265990] | 110 |
